# Measured values from patent US8945540B2, “Compositions for enhancing the antibacterial activity of myeloperoxidase and methods of use thereof” (Exoxemis, Inc., priority 2008, dated 2015).
# Tested on: Staphylococcus aureus
# Test: Control: microbicidal activity of the amino acid or analogue alone (no glucose, MPO, glucose oxidase) in the presence of blood
# Format: cell-based
# Conditions: Staphylococcus aureus, 1 h, read-out: Log Reduction 60 min
# Description: As a control to determine the microbicidal activity of the amino acids alone, the foregoing procedure was followed without replication, except in the absence of glucose, MPO, and glucose oxidase.
row,SMILES,log reduction at 5000 µM
1,O=C(O)[C@@H]1C[C@@H](O)CN1 [L-Hydroxyproline],0
2,N[C@H](CCC(=O)O)C(=O)O [D-Glutamic acid],0
3,COC(=O)CN.Cl [Glycine methyl ester hydrochloride],0

# Same assay, conditions: Staphylococcus aureus, 1 h; amino acid alone 5 mM; MPO 0; GO 0; no glucose; blood; without replication; read-out: Log Reduction 60 min
row,SMILES,log reduction at 5000 µM
1,C[C@H](O)[C@@H](N)C(=O)O [D-Threonine],0
2,C[C@@H](O)[C@H](N)C(=O)O [L-Threonine],0

# Same assay, conditions: amino acid alone 5 mM; MPO 0; GO 0; no glucose; blood; without replication
row,SMILES,Average Viability CFU/ml 60 min [CFU/ml]
1,C[C@H](O)[C@@H](N)C(=O)O [D-Threonine],20700000
2,C[C@@H](O)[C@H](N)C(=O)O [L-Threonine],23300000
3,O=C(O)[C@@H]1C[C@@H](O)CN1 [L-Hydroxyproline],20400000
4,N[C@H](CCC(=O)O)C(=O)O [D-Glutamic acid],26200000

# Same assay, conditions: amino acid analogue alone 5 mM; MPO 0; GO 0; no glucose; blood
row,SMILES,Average Viability CFU/ml 60 min [CFU/ml]
1,COC(=O)CN.Cl [Glycine methyl ester hydrochloride],21100000

# Tested on: Staphylococcus aureus
# Test: Microbicidal activity of the myeloperoxidase system (p-MPO, glucose oxidase, glucose) with amino acids in the presence of blood, CFU plate counts; synergy determination from these CFU
# Format: cell-based
# Conditions: MPO 25 μg/mL; AA 5 mM; 30 min
# Method: Bacterial suspensions, specifically Staphylococcus aureus in this example, were prepared by the shake flask method to achieve late log to early stationary phase growth. Bacteria were grown 24 hours in trypticase soy broth (TSB) at 35° C. The cultures were centrifuged at 4,000 rpm for 10 minutes and the supernatants removed. The pellet was collected and washed twice with sterile 0.9% normal saline (NS). The washed microorganisms were suspended and diluted with normal saline to a 3 McFarland standard, i.e., approximately 10^9 bacteria colony forming units (CFU) per mL. Actual colony counts are confirmed by serial dilutions (10^−1 to 10^−5 or 10^−6) plated on TSA and incubated overnight at 35° C. To obtain an approximate final working target inoculum of 10^7 CFU/mL, 15 microliters of organisms per mL of final reaction mixture are used.
# Glucose oxidase (GO) from Aspergillus Niger was purchased from Biozyme, Inc., UK, Cat #GO3A, 270 U/mg). Porcine Myeloperoxidase (p-MPO) (Exoxemis, Inc., Little Rock, Ark. U.S.A., 375 U/mg). Sterile stock solutions of D-glucose and sodium chloride were prepared and used at a final concentration of 150 mM each. L-Lysine hydrochloride (Spectrum Chemical Cat #L1142) was prepared as a 100 mM stock solution. Catalase (Sigma, Cat #C-40) was prepared as a 1% stock solution in sterile 0.9% normal saline. Blood was collected by venipuncture and used as whole blood within the same day.
# Staphylococcus aureus were used to give a final target concentration of 2-3×10^7 CFU (7.4 log 10) per mL and venous whole blood was used to give a final concentration of 3%. Glucose was added to the reaction mixtures to a final concentration of 150 mM, which initiated the microbicidal reaction. The final volume of the reaction mixtures was 1 mL. The reactions were allowed to run from 30 minutes to 2 hours, as needed, at room temperature or at 37° C. in a dry bath. At the specified time points the reaction mixtures were treated with 100 microliters of a catalase solution, containing a minimum of 100 units/μL, to consume remaining peroxide and terminate the oxidative killing. Serial dilution plate counts were performed from the contents of each vial in sterile saline and inoculated onto trypticase soy agar (TSA) for quantitative culture. Plates were then incubated at 37° C. and counts taken at 24 hours. […] The results are shown in Table 1, as the average of 2 replicates.
# The amino acids alone, in the absence of MPO were tested to rule out their microbicidal activity. The results are shown in Table 2 to Table 6, as the average of 2 replicates.
# The amino acid analogues alone, in the absence of MPO, were tested to rule out their microbicidal activity. […]
# The effect of two-way combinations of individual amino acids with L-isoleucine, as potential enhancing agents, for MPO microbicidal action in the presence of blood, was therefore examined by following the procedure of Example 5.
# The Actual CFU observed for the pair is then divided by the Predicted CFU and multiplied by 100 to calculate the % of Predicted value. This value is then to be compared to the threshold value, discussed in the next section, to determine whether the pair are synergistic, antagonistic, or additive.
# Calculation of appropriate threshold values for determination of synergism and antagonism was based upon the variability of replicated CFU survivor measures.
row,SMILES,Log 10 (CFU + 1) Survivors
1,C[C@H](O)[C@@H](N)C(=O)O [D-Threonine],7.3
2,C[C@@H](O)[C@H](N)C(=O)O [L-Threonine],7.3
3,O=C(O)[C@@H]1C[C@@H](O)CN1 [L-Hydroxyproline],7.3

# Same assay, conditions: MPO 25 μg/mL; AA 5 mM; 60 min
row,SMILES,Log 10 (CFU + 1) Survivors
1,C[C@H](O)[C@@H](N)C(=O)O [D-Threonine],6.8
2,C[C@@H](O)[C@H](N)C(=O)O [L-Threonine],7.1
3,O=C(O)[C@@H]1C[C@@H](O)CN1 [L-Hydroxyproline],7.3

# Same assay, conditions: MPO 25 μg/mL; AA […]; 30 min
row,SMILES,Log 10 (CFU + 1) Survivors
1,C[C@H](O)[C@@H](N)C(=O)O [D-Threonine],7.3
2,C[C@@H](O)[C@H](N)C(=O)O [L-Threonine],7.3
3,O=C(O)[C@@H]1C[C@@H](O)CN1 [L-Hydroxyproline],7.4

# Same assay, conditions: MPO 25 μg/mL; AA […]; 60 min
row,SMILES,Log 10 (CFU + 1) Survivors
1,C[C@H](O)[C@@H](N)C(=O)O [D-Threonine],6.7
2,C[C@@H](O)[C@H](N)C(=O)O [L-Threonine],6.7
3,O=C(O)[C@@H]1C[C@@H](O)CN1 [L-Hydroxyproline],6.1

# Same assay, conditions: MPO 100 μg/mL; AA 5 mM; 30 min
row,SMILES,Log 10 (CFU + 1) Survivors
1,C[C@H](O)[C@@H](N)C(=O)O [D-Threonine],7.1
2,C[C@@H](O)[C@H](N)C(=O)O [L-Threonine],7.1
3,O=C(O)[C@@H]1C[C@@H](O)CN1 [L-Hydroxyproline],7.2

# Same assay, conditions: MPO 100 μg/mL; AA 5 mM; 60 min
row,SMILES,Log 10 (CFU + 1) Survivors
1,C[C@H](O)[C@@H](N)C(=O)O [D-Threonine],5.1
2,C[C@@H](O)[C@H](N)C(=O)O [L-Threonine],5.5
3,O=C(O)[C@@H]1C[C@@H](O)CN1 [L-Hydroxyproline],0.9

# Same assay, conditions: MPO 100 μg/mL; AA 20 mM; 30 min
row,SMILES,Log 10 (CFU + 1) Survivors
1,C[C@H](O)[C@@H](N)C(=O)O [D-Threonine],7.4
2,C[C@@H](O)[C@H](N)C(=O)O [L-Threonine],7.3
3,O=C(O)[C@@H]1C[C@@H](O)CN1 [L-Hydroxyproline],7.2

# Same assay, conditions: MPO 100 μg/mL; AA 20 mM; 60 min
row,SMILES,Log 10 (CFU + 1) Survivors
1,C[C@H](O)[C@@H](N)C(=O)O [D-Threonine],5.0
2,C[C@@H](O)[C@H](N)C(=O)O [L-Threonine],7.3
3,O=C(O)[C@@H]1C[C@@H](O)CN1 [L-Hydroxyproline],7.3

# Same assay, conditions: Table 2; amino acid 5 mM (none: 0 mM); MPO 38 U/ml; GO 33.3 U/ml; blood
SMILES,Average Viability CFU/ml 60 min [CFU/ml],Log 10 (CFU + 1) Survivors 60 min,Log Reduction 60 min
C[C@@H](O)[C@H](N)C(=O)O [L-Threonine],630000,5.8,1.6

# Same assay, conditions: Table 3; amino acid 5 mM (none: 0 mM); MPO 38 U/ml; GO 33.3 U/ml; blood
SMILES,Average Viability CFU/ml 60 min [CFU/ml],Log 10 (CFU + 1) Survivors 60 min,Log Reduction 60 min
C[C@H](O)[C@@H](N)C(=O)O [D-Threonine],815000,5.9,1.4
O=C(O)[C@@H]1C[C@@H](O)CN1 [L-Hydroxyproline],0,0.0,7.3

# Same assay, conditions: Table 4; amino acid 5 mM (none: 0 mM); MPO 38 U/ml; GO 33.3 U/ml; blood
SMILES,Average Viability CFU/ml 60 min [CFU/ml],Log Reduction 60 min
N[C@H](CCC(=O)O)C(=O)O [D-Glutamic acid],955000,1.4

# Same assay, conditions: Table 7; amino acid analogue 5 mM; MPO 38 U/ml; GO 33.3 U/ml; blood
SMILES,Average Viability CFU/ml 60 min [CFU/ml],Log Reduction 60 min
COC(=O)CN.Cl [Glycine methyl ester hydrochloride],0,7.4

# Same assay, conditions: Table 10; single amino acid 2.5 mM; MPO 4.7 U/ml, GO 4.2 U/ml; in the presence of blood; 50 min
SMILES,Average Viability CFU/ml 50 min [CFU/ml],Log Reduction 50 min
O=C(O)[C@@H]1C[C@@H](O)CN1 [L-Hydroxyproline],13100000,0.3

# Same assay, conditions: Table 11; single amino acid 2.5 mM; MPO 4.7 U/ml, GO 4.2 U/ml; in the presence of blood; 50 min
SMILES,Average Viability CFU/ml 50 min [CFU/ml],Log Reduction 50 min
C[C@H](O)[C@@H](N)C(=O)O [D-Threonine],2020000,1.1

# Same assay, conditions: Table 13; single amino acid 2.5 mM; MPO 4.7 U/ml, GO 4.2 U/ml; in the presence of blood; 50 min
SMILES,Average Viability CFU/ml 50 min [CFU/ml],Log Reduction 50 min
C[C@@H](O)[C@H](N)C(=O)O [L-Threonine],1415000,1.2
O=C(O)[C@@H]1C[C@@H](O)CN1 [L-Hydroxyproline],11450000,0.3

# Same assay, conditions: Table 14; single amino acid 2.5 mM; MPO 4.7 U/ml, GO 4.2 U/ml; in the presence of blood; 50 min
SMILES,Average Viability CFU/ml 50 min [CFU/ml],Log Reduction 50 min
O=C(O)[C@@H]1C[C@@H](O)CN1 [L-Hydroxyproline],11550000,0.4
